Source: publication PMC8156934, “Photophysical Study and Biological Applications of Synthetic Chalcone-Based Fluorescent Dyes” (Molecules, 2021)
In brackets after ≈: the same amount, converted by molar mass. Read-outs that look alike come from different tables or passages of the source.

Legend:
S. aureus 1466 = experiment: Antibacterial activity test (MIC, MBC, growth curve); type: cell-based, Staphylococcus aureus; settings: Staphylococcus aureus
Procedure: (§1) All bacteria strains were obtained from the Thailand Institute of Scientific and Technological Research (TISTR). The antibacterial activity of chalcones 3a–f was determined by the minimal inhibitory concentration (MIC) and the minimal bactericidal concentration (MBC) against the Gram-positive (S. aureus 1466, TISTR 1466) and Gram-negative (E.coli 780, TISTR 780) bacteria. The stocks of chalcones 3a–f (0.60 mg/mL) were serially diluted in Muller–Hinton (MH) broth to obtain concentrations in the range of 250–1000 µM. The solutions of chalcones 3a–f (100 µL) at different concentrations were added in the culture of the tested bacteria (100 µL) at a concentration of 1 × 10^6 colony-forming units/mL (CFU/mL) in MH broth at 37 °C with shaking at 80 rpm. The bacterial numbers were determined by measuring the optical density at 600 nm by a UV–Vis spectrometer. […] To determine the MBC values, the bacterial cultures (10 µL) containing the solutions of chalcones 3a–f at MIC and three higher concentrations were dropped on MH agar plates.

[1] = Photo-stability test (photobleaching under 250 W blue light); type: physicochemical; settings: DMSO, 250 W blue light (380–500 nm), after 30 min irradiation
Procedure: Chalcones 3a–f were dissolved in DMSO at the final concentration of 1 × 10^−6 M for measuring absorption and emission intensity. Then, 3a–f were irradiated at 250 W (blue-lamp) at a distance of 75 cm. The UV–Visible absorption and fluorescence spectra of the solutions were measured at different time points including 0, 1, 5, 10, 15, 20, and 30 min. Photo-stability was reported in terms of photobleaching absorption and emission (%) calculated from the change of absorption and emission intensity at the absorption and emission maxima before and after irradiation.

[2] = pH effect on fluorescence emission; type: physicochemical; settings: 3% Tween 80
Procedure: Chalcones 3a–f (2 µM) were dissolved in commercial pH 1–12 buffers purchased from Merck (St. Louis, MO, USA) (glycine/NaCl/HCl for pH 1, citric acid/NaOH/HCl for pH 2–6, Na2HPO4/KH2PO4 for pH 7, boric acid/ KCl/NaOH for pH 8–11, Na3PO4/NaOH for pH 12) in the presence of Tween 80 (3% w/w). The actual pH values of the final buffer solutions were measured by a pH meter. The resulting solutions were examined by a Spectrofluorometer (PerkinElmer LS55) at the maximum absorbance wavelength of each compound.

HEK-293 = experiment: Cell viability MTT assay, normal cells; type: cell-based; settings: Homo sapiens
Procedure: (§2) For fluorescence imaging of living cells, human embryonic kidney 293 (HEK-293, ATCC) and human hepatoma cancer cell (HepG2, ATCC) were cultured in Dulbecco′s Modified Eagle′s Medium (DMEM, HyClone) supplemented with 10% Fetal Bovine Serum (FBS, Gibco, Carlsbad, CA, USA) and 1% Penicillin/Streptomycin Solution 100X (Corning, Corning, NY, USA). All cells were cultured in a humidified incubator at 37 °C with 5% CO2. HEK-293 and HepG2 cells, approximately 1 × 10^4 cells, were seeded on 8-well chambered cover glasses (LabTek, Nunc, Carlsbad, CA, USA) and incubated in complete medium for 24 h. After that, the cells were treated with 5 μM stock solutions of 3a–f in DMSO/cell culture medium containing 10% FBS (0.25% DMSO), for 0, 1, 3, and 6 h. Then, the cells were washed twice with 0.01 M PBS before being visualized under a Laser-Scanning Confocal Microscope (Nikon A1Rsi) with a 60× oil immersion objective lens and living cell workstation with the excitation channel at 488 nm.
(§3) The cells were seeded on a 96-well plate, approximately 7 × 10^3 cells per well, and incubated in complete medium for 24 h. After that, the cells were treated with 0, 1, 5, 10, 20, and 50 μM of chalcones 3a–f, and culturing continued for 24 h. After incubation, the cells were washed three times with 10 mM PBS and treated with […] of methylthiazolyldiphenyl-tetrazolium bromide (MTT reagent, 0.5 mg mL^−1, Sigma-Aldrich, St. Louis, MO, USA) for 2–3 h. After medium removal, DMSO was added to dissolve the formazan product, and cell viability was determined by UV–Vis absorption of the resulting formazan at a wavelength of 560 nm in a microplate reader (BMG Labtech/SPECTROstar Nano, Ortenberg, Germany).

[3] = Photophysical properties (UV–Vis absorption and fluorescence spectra); type: physicochemical; settings: for λabs absorption maximum wavelength / ∆λ stokes shifts (λem − λabs) / λem emission maximum wavelength / Φf fluorescence quantum yields: 2 µM; for λem emission maximum wavelength: excited at the maximum absorption wavelength; for Φf fluorescence quantum yields: n = 3, relative to fluorescein in 0.1 M NaOH
Procedure: All UV–Vis absorption and fluorescence spectra were recorded on a UV–Vis Spectrophotometer (Agilent Technologies Cary 300, Santa Clara, CA, USA) and a Spectrofluorometer (PerkinElmer LS55, Waltham, MA, USA), respectively. In both experiments, the stock solutions of chalcones 3a–f were prepared as 0.5 mM in DMSO. The appropriate amount of the stock solution was added to DMSO, MeOH, and 0.01 M PBS buffer (pH 7.4) with 3% Tween 80 (3 mL) to obtain the final concentration of 2 µM in the testing solutions. For fluorescence experiments, the emission spectra were recorded at the maximum absorbance wavelength of each compound. The fluorescent quantum yields (Φf) were calculated relative to fluorescein in 0.1 M NaOH as a standard (Φf = 0.95).

E. coli 780 = experiment: Antibacterial activity test (MIC, MBC, growth curve); type: cell-based, Escherichia coli; settings: Escherichia coli
Procedure: as §1

HepG2 = experiment: Cell viability MTT assay, cancer cells; type: cell-based; settings: Homo sapiens, HepG2, 24 h
Procedure: as §2, §3

[4] = S. aureus 1466, mean ± SD of three independent experiments, read-out: MBC
[5] = S. aureus 1466, mean ± SD of three independent experiments, read-out: MIC
[6] = HEK293, HEK-293, 24 h, MTT, read-out: IC50
[7] = E. coli 780, mean ± SD of three independent experiments, read-out: MBC
[8] = E. coli 780, mean ± SD of three independent experiments, read-out: MIC

| Compound | MBC (S. aureus 1466; [4]) | MIC (S. aureus 1466; [5]) | % photobleaching of absorbance [1] | % photobleaching of fluorescence [1] | fluorescence emission ([2]; pH range from 2 to 12, 2 µM) | ε molar absorptivity ([3]; DMSO) | λabs absorption maximum wavelength ([3]; DMSO) | ∆λ stokes shifts (λem − λabs) ([3]; DMSO) | λem emission maximum wavelength ([3]; DMSO) | Φf fluorescence quantum yields ([3]; DMSO) | ε molar absorptivity ([3]; MeOH) | λabs absorption maximum wavelength ([3]; MeOH) | ∆λ stokes shifts (λem − λabs) ([3]; MeOH) | λem emission maximum wavelength ([3]; MeOH) | Φf fluorescence quantum yields ([3]; MeOH) | ε molar absorptivity ([3]; PBS (3%w/w tween 80)) | λabs absorption maximum wavelength ([3]; PBS (3%w/w tween 80)) | ∆λ stokes shifts (λem − λabs) ([3]; PBS (3%w/w tween 80)) | λem emission maximum wavelength ([3]; PBS (3%w/w tween 80)) | Φf fluorescence quantum yields ([3]; PBS (3%w/w tween 80)) | also measured |
| --- | --- | --- | --- | --- | --- | --- | --- | --- | --- | --- | --- | --- | --- | --- | --- | --- | --- | --- | --- | --- | --- |
| Cc1ccc(C(=O)/C=C/c2ccc(N(C)C)cc2)cc1 [3e] | 1000 ± 0.02 µM (≈ 265 µg/mL) | 375 ± 0.03 µM (≈ 99.5 µg/mL) | 46% | 21% | Higher emission peaks | 32000 M⁻¹ cm⁻¹ | 420 nm | 119 nm | 539 nm | 0.50 ± 0.02 | 32000 M⁻¹ cm⁻¹ | 417 nm | 130 nm | 547 nm | 0.012 ± 0.007 | 28000 M⁻¹ cm⁻¹ | 420 nm | 101 nm | 521 nm | 0.18 ± 0.03 | IC50 (HEK-293; [6]): 96 µM; MBC (E. coli 780; [7]): 1000 ± 0.02 µM (≈ 265 µg/mL); MIC (E. coli 780; [8]): 375 ± 0.01 µM (≈ 99.5 µg/mL); IC50 (HepG2; MTT, read-out: IC50): 54 µM |
| CN(C)c1ccc(/C=C/C(=O)c2ccc(N)cc2)cc1 [3f] | 1000 ± 0.04 µM (≈ 266 µg/mL) | 375 ± 0.01 µM (≈ 99.9 µg/mL) | 48% | 47% | Higher emission peaks | 35000 M⁻¹ cm⁻¹ | 412 nm | 100 nm | 512 nm | 0.21 ± 0.03 | 31000 M⁻¹ cm⁻¹ | 414 nm | 135 nm | 549 nm | 0.027 ± 0.011 | 34000 M⁻¹ cm⁻¹ | 412 nm | 112 nm | 524 nm | 0.18 ± 0.02 | IC50 (HEK-293; [6]): > 100 µM; MBC (E. coli 780; [7]): 750 ± 0.01 µM (≈ 200 µg/mL); MIC (E. coli 780; [8]): 375 ± 0.01 µM (≈ 99.9 µg/mL); IC50 (HepG2; MTT, read-out: IC50): 54 µM |
| CN(C)c1ccc(/C=C/C(=O)c2ccc(O)cc2)cc1 [3c] |  |  | 37% | 50% |  | 10000 M⁻¹ cm⁻¹ | 413 nm | 107 nm | 520 nm | 0.61 ± 0.04 | 10000 M⁻¹ cm⁻¹ | 414 nm | 132 nm | 546 nm | 0.017 ± 0.011 | 13000 M⁻¹ cm⁻¹ | 411 nm | 115 nm | 526 nm | 0.11 ± 0.02 | MBC (S. aureus 1466; 1466): 1000 ± 0.01 µM (≈ 267 µg/mL); MIC (S. aureus 1466; 1466): 375 ± 0.01 µM (≈ 100 µg/mL); fluorescence emission ([2]; basic conditions (pH 9–12), 2 µM): reduced emission signals; IC50 (HEK-293; HEK293, 24 h): > 100 µM; MBC (E. coli 780; 780): 750 ± 0.01 µM (≈ 200 µg/mL); MIC (E. coli 780; 780): 250 ± 0.01 µM (≈ 66.8 µg/mL); IC50 (HepG2): 100 µM |
| COc1ccc(C(=O)/C=C/c2ccc(N(C)C)cc2)cc1 [3a] | 1000 ± 0.09 µM (≈ 281 µg/mL) | 375 ± 0.03 µM (≈ 106 µg/mL) | 50% | 25% | Higher emission peaks | 46000 M⁻¹ cm⁻¹ | 417 nm | 115 nm | 532 nm | 0.69 ± 0.04 | 30000 M⁻¹ cm⁻¹ | 417 nm | 132 nm | 549 nm | 0.013 ± 0.006 | 33000 M⁻¹ cm⁻¹ | 416 nm | 113 nm | 529 nm | 0.15 ± 0.02 | IC50 (HEK-293; [6]): > 100 µM; MBC (E. coli 780; [7]): 750 ± 0.02 µM (≈ 211 µg/mL); MIC (E. coli 780; [8]): 375 ± 0.01 µM (≈ 106 µg/mL) |
| CN(C)c1ccc(/C=C/C(=O)c2cccs2)cc1 [3b] | 1000 ± 0.01 µM (≈ 257 µg/mL) | 375 ± 0.01 µM (≈ 96.5 µg/mL) | 26% | 43% | Higher emission peaks | 31000 M⁻¹ cm⁻¹ | 431 nm | 129 nm | 560 nm | 0.34 ± 0.04 | 29000 M⁻¹ cm⁻¹ | 428 nm | 139 nm | 567 nm | 0.012 ± 0.007 | 37000 M⁻¹ cm⁻¹ | 427 nm | 93 nm | 520 nm | 0.11 ± 0.02 | IC50 (HEK-293; [6]): > 100 µM; MBC (E. coli 780; [7]): 750 ± 0.02 µM (≈ 193 µg/mL); MIC (E. coli 780; [8]): 250 ± 0.02 µM (≈ 64.3 µg/mL); IC50 (HepG2; MTT, read-out: IC50): 45 µM |
